# Laboratory results published in US20080009418A1, “Selective Inhibitors” (Alchemia LTD., priority 2004, published 2008).
# Tests used:
# Human δ-opioid (DOP) = target: T1, Human δ-opioid (DOP) (Homo sapiens, UniProt P41143); assay: Radioligand binding, human δ-opioid (DOP) membranes, FlashPlate, [3H]-Bremazocine; conditions: compound at 10 μM; [3H]-Bremazocine, human DOP membranes
# T1 construct: purchased Perkin Elmer Biosignal
# Outline: (§1)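 Cloned human receptor membranes were coated onto FlashPlate wells and incubated with radioligand and compound (added from a 0.5 mM DMSO daughter plate) for 1 hour at room temperature in the dark. Scintillation counting gave percent inhibition, with DMSO defining total and reference ligand defining non-specific binding.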
# Human κ-Opioid (KOP) = target: T2, Human κ-Opioid (KOP) (Homo sapiens, UniProt P41145); assay: Radioligand binding, human κ-opioid (KOP) membranes, filtration, [3H]-Diprenorphine; conditions: compound at 10 μM; [3H]-Diprenorphine, human KOP membranes
# T2 construct: purchased Perkin Elmer Biosignal
# Outline: (§2)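 Percent inhibition of radioligand binding measured on recombinant human membranes: NK1 with [125I]-Substance P, KOP with [3H]-Diprenorphine. Incubation 1 h at room temperature, then harvest onto 0.3% PEI-soaked filters, cold Tris-HCl pH 7.4 washes and scintillation counting; non-specific binding from reference ligand wells.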
# Human Melanocortin (MC3) = target: T3, Human Melanocortin (MC3) (Homo sapiens, UniProt P41968); assay: Radioligand binding, human melanocortin MC3 membranes, FlashPlate, [125I]-NDP-αMSH; conditions: compound at 10 μM, [125I]-NDP-αMSH, human MC3 membranes
# T3 construct: purchased Perkin Elmer Biosignal
# Outline: as §1
# Human Melanocortin (MC4) = target: T4, Human Melanocortin (MC4) (Homo sapiens, UniProt P32245); assay: Radioligand binding, human melanocortin MC4 membranes, FlashPlate, [125I]-NDP-αMSH; conditions: compound at 10 μM, [125I]-NDP-αMSH, human MC4 membranes
# T4 construct: purchased Perkin Elmer Biosignal
# Outline: as §1
# Human melanocortin (MC5) = target: T5, Human melanocortin (MC5) (Homo sapiens, UniProt P33032); assay: Radioligand binding, human melanocortin MC5 membranes, FlashPlate, [125I]-NDP-αMSH; conditions: compound at 10 μM, [125I]-NDP-αMSH, human MC5 membranes
# T5 construct: purchased Perkin Elmer Biosignal
# Outline: as §1
# [1] = target: T6, Human melanin-concentrating hormone (MCH1) (Homo sapiens, UniProt Q99705); assay: Radioligand binding, human melanin-concentrating hormone MCH1 membranes, FlashPlate, [125I]-S36057; conditions: compound at 10 μM, [125I]-S36057, human MCH1 membranes
# T6 construct: purchased Perkin Elmer Biosignal
# Outline: as §1
# Human μ-opioid (MOP) = target: T7, Human μ-opioid (MOP) (Homo sapiens, UniProt P35372); assay: Radioligand binding, human μ-opioid (MOP) membranes, FlashPlate, [3H]-Naloxone; conditions: compound at 10 μM; [3H]-Naloxone, human MOP membranes
# T7 construct: purchased Perkin Elmer Biosignal
# Outline: as §1
# Human neurokinin (NK1) = target: T8, Human neurokinin (NK1) (Homo sapiens, UniProt P25103); assay: Radioligand binding, human neurokinin NK1 membranes, filtration, [125I]-Substance P; conditions: compound at 10 μM; [125I]-Substance P, human NK1 membranes
# T8 construct: purchased Perkin Elmer Biosignal
# Outline: as §2
# [2] = target: T9, Human neuropeptide Y (NPY-Y1) (Homo sapiens, UniProt P25929); assay: Radioligand binding, human neuropeptide Y NPY-Y1 membranes, FlashPlate, [125I]-PYY; conditions: compound at 10 μM; [125I]-PYY, human NPY-Y1 membranes
# T9 construct: purchased Perkin Elmer Biosignal
# T9 sequence (P25929 1-384): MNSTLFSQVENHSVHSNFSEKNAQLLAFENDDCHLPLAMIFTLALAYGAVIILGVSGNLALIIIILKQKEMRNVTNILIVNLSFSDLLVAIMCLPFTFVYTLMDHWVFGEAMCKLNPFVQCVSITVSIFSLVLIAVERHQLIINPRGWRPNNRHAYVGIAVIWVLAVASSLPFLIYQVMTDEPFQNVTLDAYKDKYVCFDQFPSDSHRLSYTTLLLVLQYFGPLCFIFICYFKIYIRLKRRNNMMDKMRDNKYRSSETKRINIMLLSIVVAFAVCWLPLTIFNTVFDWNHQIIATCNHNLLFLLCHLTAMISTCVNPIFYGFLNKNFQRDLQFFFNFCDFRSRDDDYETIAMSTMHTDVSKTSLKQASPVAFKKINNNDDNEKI
# Outline: as §1
# Human opioid (ORL1) = target: T10, Human opioid (ORL1) (Homo sapiens, UniProt P41146); assay: Radioligand binding, human opioid ORL1 membranes, FlashPlate, [125I]-Nociceptin; conditions: compound at 10 μM; [125I]-Nociceptin, human ORL1 membranes
# T10 construct: purchased Perkin Elmer Biosignal
# Outline: as §1
# Mouse urotensin (mUR2) = target: T11, Mouse urotensin (mUR2) (Mus musculus, UniProt Q8VIH9); assay: Radioligand binding, mouse urotensin mUR2 membranes, FlashPlate, [125I]-Urotensin II; conditions: compound at 10 μM; [125I]-Urotensin II, mouse mUR2 membranes
# T11 construct: purchased Perkin Elmer Biosignal
# T11 sequence (Q8VIH9 1-385): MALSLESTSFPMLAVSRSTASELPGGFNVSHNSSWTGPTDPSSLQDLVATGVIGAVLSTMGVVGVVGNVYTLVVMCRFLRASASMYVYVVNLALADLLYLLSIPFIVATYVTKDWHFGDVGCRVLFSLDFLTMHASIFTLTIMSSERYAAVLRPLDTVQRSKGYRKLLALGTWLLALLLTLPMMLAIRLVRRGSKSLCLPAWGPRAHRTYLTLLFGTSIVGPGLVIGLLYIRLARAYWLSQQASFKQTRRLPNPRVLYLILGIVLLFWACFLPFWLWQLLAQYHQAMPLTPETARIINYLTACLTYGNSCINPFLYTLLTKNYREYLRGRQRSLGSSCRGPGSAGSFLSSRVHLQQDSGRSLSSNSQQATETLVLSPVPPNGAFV
# Outline: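 Cloned mouse urotensin (mUR2) receptor membranes from Perkin Elmer Biosignal were immobilized in FlashPlate microplates using a proprietary coating. Each well got 19.5 μl buffer, then 0.5 μl of DMSO, reference ligand, or compound. Adding 5 μl of [125I]-Urotensin II, diluted to 5× final concentration in binding buffer, started binding. Plates were sealed with TopSeal-A and incubated 1 hour at room temperature in the dark. Wells were counted for 30 seconds each on a TopCount after a 60-second delay, and percentage inhibition was calculated.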
# T1 sequence (P41143 whole entry): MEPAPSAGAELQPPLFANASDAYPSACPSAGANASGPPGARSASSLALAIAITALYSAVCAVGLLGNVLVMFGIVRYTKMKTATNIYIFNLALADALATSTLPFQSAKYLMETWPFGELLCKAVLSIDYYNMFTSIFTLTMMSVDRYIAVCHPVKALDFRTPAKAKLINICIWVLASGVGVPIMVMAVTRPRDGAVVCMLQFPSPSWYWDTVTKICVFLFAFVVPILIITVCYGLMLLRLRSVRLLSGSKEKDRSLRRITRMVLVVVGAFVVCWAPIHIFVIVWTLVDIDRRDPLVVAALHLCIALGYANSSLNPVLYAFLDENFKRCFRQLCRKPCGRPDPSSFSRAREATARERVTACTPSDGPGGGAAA
# T5 sequence (P33032 whole entry): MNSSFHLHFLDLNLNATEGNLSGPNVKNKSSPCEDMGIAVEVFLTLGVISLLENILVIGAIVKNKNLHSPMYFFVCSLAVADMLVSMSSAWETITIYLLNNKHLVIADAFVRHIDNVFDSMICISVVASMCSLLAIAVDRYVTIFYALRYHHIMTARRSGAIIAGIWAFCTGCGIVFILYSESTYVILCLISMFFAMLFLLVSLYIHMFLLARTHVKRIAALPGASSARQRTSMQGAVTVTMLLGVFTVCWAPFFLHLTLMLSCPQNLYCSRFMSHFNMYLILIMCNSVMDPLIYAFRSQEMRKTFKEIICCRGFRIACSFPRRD
# T2 sequence (P41145 whole entry): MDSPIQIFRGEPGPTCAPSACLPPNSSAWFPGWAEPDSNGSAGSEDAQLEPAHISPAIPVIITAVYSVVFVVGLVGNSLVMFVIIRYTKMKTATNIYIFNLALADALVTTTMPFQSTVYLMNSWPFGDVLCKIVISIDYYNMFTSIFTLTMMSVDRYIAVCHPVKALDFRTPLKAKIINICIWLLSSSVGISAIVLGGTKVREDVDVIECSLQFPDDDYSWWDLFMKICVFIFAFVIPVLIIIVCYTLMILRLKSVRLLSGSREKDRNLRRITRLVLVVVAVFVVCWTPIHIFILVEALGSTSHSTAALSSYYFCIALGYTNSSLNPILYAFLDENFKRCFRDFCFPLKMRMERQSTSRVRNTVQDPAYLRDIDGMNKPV
# T4 sequence (P32245 whole entry): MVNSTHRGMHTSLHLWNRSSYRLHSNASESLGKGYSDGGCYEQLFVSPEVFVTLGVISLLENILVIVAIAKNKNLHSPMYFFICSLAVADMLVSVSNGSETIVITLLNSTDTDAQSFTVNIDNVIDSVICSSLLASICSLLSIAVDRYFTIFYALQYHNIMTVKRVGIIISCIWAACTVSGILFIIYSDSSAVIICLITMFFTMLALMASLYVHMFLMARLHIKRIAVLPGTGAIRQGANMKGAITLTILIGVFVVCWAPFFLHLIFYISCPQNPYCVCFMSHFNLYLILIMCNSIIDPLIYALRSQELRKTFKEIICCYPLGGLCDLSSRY
# T3 sequence (P41968 whole entry): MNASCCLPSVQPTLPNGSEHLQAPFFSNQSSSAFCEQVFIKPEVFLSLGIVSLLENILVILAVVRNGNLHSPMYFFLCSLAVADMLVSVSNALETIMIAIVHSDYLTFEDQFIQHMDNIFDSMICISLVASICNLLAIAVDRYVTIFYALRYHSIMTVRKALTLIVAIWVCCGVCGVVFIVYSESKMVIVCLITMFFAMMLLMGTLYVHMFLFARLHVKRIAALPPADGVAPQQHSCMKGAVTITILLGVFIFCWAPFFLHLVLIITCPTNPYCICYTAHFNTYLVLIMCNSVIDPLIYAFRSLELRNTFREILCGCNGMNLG
# T8 sequence (P25103 whole entry): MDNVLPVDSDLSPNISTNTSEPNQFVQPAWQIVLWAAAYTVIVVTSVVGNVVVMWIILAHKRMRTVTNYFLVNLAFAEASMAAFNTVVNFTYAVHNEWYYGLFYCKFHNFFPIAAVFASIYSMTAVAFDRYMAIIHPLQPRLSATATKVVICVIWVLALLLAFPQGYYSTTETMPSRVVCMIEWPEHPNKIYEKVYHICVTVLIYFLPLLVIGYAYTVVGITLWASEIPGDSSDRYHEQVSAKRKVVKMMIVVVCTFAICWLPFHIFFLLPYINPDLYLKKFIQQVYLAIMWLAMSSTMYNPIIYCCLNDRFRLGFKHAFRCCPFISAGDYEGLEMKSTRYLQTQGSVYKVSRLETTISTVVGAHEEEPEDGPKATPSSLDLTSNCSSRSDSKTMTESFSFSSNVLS
# T6 sequence (Q99705 whole entry): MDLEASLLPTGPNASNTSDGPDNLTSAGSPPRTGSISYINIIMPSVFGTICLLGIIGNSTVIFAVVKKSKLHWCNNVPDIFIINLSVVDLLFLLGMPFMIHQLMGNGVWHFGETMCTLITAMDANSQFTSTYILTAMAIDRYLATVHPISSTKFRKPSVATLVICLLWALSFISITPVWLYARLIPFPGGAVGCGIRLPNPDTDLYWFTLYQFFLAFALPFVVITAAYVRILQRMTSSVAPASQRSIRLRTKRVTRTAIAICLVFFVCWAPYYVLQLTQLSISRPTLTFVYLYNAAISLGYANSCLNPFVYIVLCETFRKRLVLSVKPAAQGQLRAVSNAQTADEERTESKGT
# T10 sequence (P41146 whole entry): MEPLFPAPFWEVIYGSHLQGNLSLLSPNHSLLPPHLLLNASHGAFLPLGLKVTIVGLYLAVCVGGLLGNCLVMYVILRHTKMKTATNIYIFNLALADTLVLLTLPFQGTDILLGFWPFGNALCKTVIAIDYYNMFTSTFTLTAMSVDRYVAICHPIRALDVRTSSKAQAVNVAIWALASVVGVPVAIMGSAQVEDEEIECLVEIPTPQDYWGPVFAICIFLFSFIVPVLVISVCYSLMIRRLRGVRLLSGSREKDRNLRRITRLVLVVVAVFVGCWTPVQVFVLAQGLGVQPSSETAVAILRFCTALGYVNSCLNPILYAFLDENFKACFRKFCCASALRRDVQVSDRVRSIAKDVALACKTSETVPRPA
# T7 sequence (P35372 whole entry): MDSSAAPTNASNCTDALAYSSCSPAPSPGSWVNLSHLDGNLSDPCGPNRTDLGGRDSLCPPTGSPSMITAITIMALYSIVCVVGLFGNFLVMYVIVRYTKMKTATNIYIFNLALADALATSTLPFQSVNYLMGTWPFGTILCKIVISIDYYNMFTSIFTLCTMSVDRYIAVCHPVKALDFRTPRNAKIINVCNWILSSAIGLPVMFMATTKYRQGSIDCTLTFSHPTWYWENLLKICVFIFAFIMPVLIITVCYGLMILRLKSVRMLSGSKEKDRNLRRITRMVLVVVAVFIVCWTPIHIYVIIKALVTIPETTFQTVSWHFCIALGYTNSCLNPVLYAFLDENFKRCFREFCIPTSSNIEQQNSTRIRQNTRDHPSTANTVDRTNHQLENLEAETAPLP
compound,measurement,setting,value
NCCC(=O)N[C@H]1C(OCc2ccc3ccccc3c2)O[C@H](COCc2ccccc2)[C@@H](O)[C@@H]1OCc1ccc(Cl)cc1 (stereo partly shown) [compound 438],A1: inhibition of radioligand binding,Human δ-opioid (DOP),− (“−” indicates less than 50% inhibition at 10 μM)
same,A2: inhibition of radioligand binding,Human κ-Opioid (KOP),− (“−” indicates less than 50% inhibition at 10 μM)
same,A3: inhibition of radioligand binding,Human Melanocortin (MC3),− (“−” indicates less than 50% inhibition at 10 μM)
same,A4: inhibition of radioligand binding,Human Melanocortin (MC4); 10 µM,− (“−” indicates less than 50% inhibition at 10 μM)
same,A5: inhibition of radioligand binding,Human melanocortin (MC5); 10 µM,− (“−” indicates less than 50% inhibition at 10 μM)
same,A6: inhibition of radioligand binding,[1]; 10 µM,+ (“+” indicates greater than 50% inhibition at 10 μM)
same,A7: inhibition of radioligand binding,Human μ-opioid (MOP),− (“−” indicates less than 50% inhibition at 10 μM)
same,A8: inhibition of radioligand binding,Human neurokinin (NK1),+ (“+” indicates greater than 50% inhibition at 10 μM)
same,A9: inhibition of radioligand binding,[2],− (“−” indicates less than 50% inhibition at 10 μM)
same,A10: inhibition of radioligand binding,Human opioid (ORL1),− (“−” indicates less than 50% inhibition at 10 μM)
same,A11: inhibition of radioligand binding,Mouse urotensin (mUR2),− (“−” indicates less than 50% inhibition at 10 μM)
NCCC(=O)N[C@H]1C(OCc2ccc3ccccc3c2)O[C@H](COCc2ccccc2)[C@@H](O)[C@@H]1OCc1ccc(Cl)cc1 (stereo partly shown) [compound 439],A1: inhibition of radioligand binding,Human δ-opioid (DOP),− (“−” indicates less than 50% inhibition at 10 μM)
same,A2: inhibition of radioligand binding,Human κ-Opioid (KOP),− (“−” indicates less than 50% inhibition at 10 μM)
same,A3: inhibition of radioligand binding,Human Melanocortin (MC3),− (“−” indicates less than 50% inhibition at 10 μM)
same,A4: inhibition of radioligand binding,Human Melanocortin (MC4); 10 µM,+ (“+” indicates greater than 50% inhibition at 10 μM)
same,A5: inhibition of radioligand binding,Human melanocortin (MC5); 10 µM,+ (“+” indicates greater than 50% inhibition at 10 μM)
same,A6: inhibition of radioligand binding,[1]; 10 µM,− (“−” indicates less than 50% inhibition at 10 μM)
same,A7: inhibition of radioligand binding,Human μ-opioid (MOP),− (“−” indicates less than 50% inhibition at 10 μM)
same,A8: inhibition of radioligand binding,Human neurokinin (NK1),+ (“+” indicates greater than 50% inhibition at 10 μM)
same,A9: inhibition of radioligand binding,[2],− (“−” indicates less than 50% inhibition at 10 μM)
same,A10: inhibition of radioligand binding,Human opioid (ORL1),− (“−” indicates less than 50% inhibition at 10 μM)
same,A11: inhibition of radioligand binding,Mouse urotensin (mUR2),− (“−” indicates less than 50% inhibition at 10 μM)
NCCC(=O)N[C@H]1C(OCc2ccc3ccccc3c2)O[C@H](COCc2ccc(Cl)cc2)[C@@H](O)[C@@H]1OCc1ccc(Cl)cc1 (stereo partly shown) [compound 440],A1: inhibition of radioligand binding,Human δ-opioid (DOP),− (“−” indicates less than 50% inhibition at 10 μM)
same,A2: inhibition of radioligand binding,Human κ-Opioid (KOP),− (“−” indicates less than 50% inhibition at 10 μM)
same,A3: inhibition of radioligand binding,Human Melanocortin (MC3); 10 µM,− (“−” indicates less than 50% inhibition at 10 μM)
same,A4: inhibition of radioligand binding,Human Melanocortin (MC4); 10 µM,− (“−” indicates less than 50% inhibition at 10 μM)
same,A5: inhibition of radioligand binding,Human melanocortin (MC5),+ (“+” indicates greater than 50% inhibition at 10 μM)
same,A6: inhibition of radioligand binding,[1],+ (“+” indicates greater than 50% inhibition at 10 μM)
same,A7: inhibition of radioligand binding,Human μ-opioid (MOP),− (“−” indicates less than 50% inhibition at 10 μM)
same,A8: inhibition of radioligand binding,Human neurokinin (NK1),+ (“+” indicates greater than 50% inhibition at 10 μM)
same,A9: inhibition of radioligand binding,[2],− (“−” indicates less than 50% inhibition at 10 μM)
same,A10: inhibition of radioligand binding,Human opioid (ORL1),− (“−” indicates less than 50% inhibition at 10 μM)
same,A11: inhibition of radioligand binding,Mouse urotensin (mUR2),− (“−” indicates less than 50% inhibition at 10 μM)
NCCC(=O)N[C@H]1C(OCc2ccc3ccccc3c2)O[C@H](COCc2ccc(Cl)cc2)[C@@H](O)[C@@H]1OCc1ccc(Cl)cc1 (stereo partly shown) [compound 441],A1: inhibition of radioligand binding,Human δ-opioid (DOP),− (“−” indicates less than 50% inhibition at 10 μM)
same,A2: inhibition of radioligand binding,Human κ-Opioid (KOP),− (“−” indicates less than 50% inhibition at 10 μM)
same,A3: inhibition of radioligand binding,Human Melanocortin (MC3); 10 µM,+ (“+” indicates greater than 50% inhibition at 10 μM)
same,A4: inhibition of radioligand binding,Human Melanocortin (MC4); 10 µM,+ (“+” indicates greater than 50% inhibition at 10 μM)
same,A5: inhibition of radioligand binding,Human melanocortin (MC5),+ (“+” indicates greater than 50% inhibition at 10 μM)
same,A6: inhibition of radioligand binding,[1],+ (“+” indicates greater than 50% inhibition at 10 μM)
same,A7: inhibition of radioligand binding,Human μ-opioid (MOP),− (“−” indicates less than 50% inhibition at 10 μM)
same,A8: inhibition of radioligand binding,Human neurokinin (NK1),+ (“+” indicates greater than 50% inhibition at 10 μM)
same,A9: inhibition of radioligand binding,[2],− (“−” indicates less than 50% inhibition at 10 μM)
same,A10: inhibition of radioligand binding,Human opioid (ORL1),− (“−” indicates less than 50% inhibition at 10 μM)
same,A11: inhibition of radioligand binding,Mouse urotensin (mUR2),− (“−” indicates less than 50% inhibition at 10 μM)
NCCC(=O)N[C@H]1C(OCc2ccc3ccccc3c2)O[C@H](COCc2ccc3ccccc3c2)[C@@H](O)[C@@H]1OCc1ccc2ccccc2c1 (stereo partly shown) [compound 442],A1: inhibition of radioligand binding,Human δ-opioid (DOP),− (“−” indicates less than 50% inhibition at 10 μM)
same,A2: inhibition of radioligand binding,Human κ-Opioid (KOP),− (“−” indicates less than 50% inhibition at 10 μM)
same,A3: inhibition of radioligand binding,Human Melanocortin (MC3),+ (“+” indicates greater than 50% inhibition at 10 μM)
same,A4: inhibition of radioligand binding,Human Melanocortin (MC4),+ (“+” indicates greater than 50% inhibition at 10 μM)
same,A5: inhibition of radioligand binding,Human melanocortin (MC5),+ (“+” indicates greater than 50% inhibition at 10 μM)
same,A6: inhibition of radioligand binding,[1],+ (“+” indicates greater than 50% inhibition at 10 μM)
same,A7: inhibition of radioligand binding,Human μ-opioid (MOP),− (“−” indicates less than 50% inhibition at 10 μM)
same,A8: inhibition of radioligand binding,Human neurokinin (NK1),+ (“+” indicates greater than 50% inhibition at 10 μM)
same,A9: inhibition of radioligand binding,[2],− (“−” indicates less than 50% inhibition at 10 μM)
same,A10: inhibition of radioligand binding,Human opioid (ORL1),+ (“+” indicates greater than 50% inhibition at 10 μM)
same,A11: inhibition of radioligand binding,Mouse urotensin (mUR2),− (“−” indicates less than 50% inhibition at 10 μM)
